Nine compounds from PubChem BioAssay (NCI) can be followed below.

Common to all, as to assay: inhibition of tumour cell growth, NCI panel, 48 h
The test system of experiment [1] is HCT-116 colon.
Experiment [2] relates to HL-60(TB) leukemia.
Experiment [3] has as its system HOP-92 NSCLC.
Experiment [4] deals with K-562 leukemia.
Experiment [5] relates to LOX IMVI melanoma.
The subject of experiment [6] is MALME-3M melanoma.
Experiment [7] deals with NCI-H226 lung.
Experiment [8] deals with NCI-H460 lung.
Experiment [9] concerns OVCAR-8 ovarian.
The subject of experiment [10] is RXF 393 renal.
The test system of experiment [11] is SF-268 CNS.
In experiment [12] the test system is SN12C renal.
In experiment [13] the test system is SNB-19 CNS.
In experiment [14] the test system is SNB-75 CNS.
For experiment [15], the system named is TK-10 renal.
Experiment [16] deals with U251 CNS.
Experiment [17] deals with UO-31 renal.

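Results reflect a 48-hour exposure of cells in 96-well plates to compound at five concentrations. TGI marks complete inhibition of growth.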

Regarding `O=C(Cc1ccc([N+](=O)[O-])c([N+](=O)[O-])c1CC(=O)C(=O)Nc1cc(Cl)ccc1Cl)C(=O)Nc1cc(Cl)ccc1Cl`, the TGI in experiment [1] was above 100 µM; in experiment [2], above 100 µM; in [3] it was above 100 µM; in experiment [4], above 100 µM; in [5], 65.9 µM; in experiment [6], above 100 µM. For the same compound, the TGI in experiment [7] was above 100 µM; in experiment [8], above 100 µM; in experiment [9] it was above 100 µM; in [10] it was 94.7 µM; in experiment [11], above 100 µM; in experiment [12], above 100 µM. Moreover, the TGI was above 100 µM in [13]; above 100 µM in experiment [14]; above 100 µM in [15]; 70.1 µM in [16]; above 100 µM in experiment [17].
Regarding `COc1ccccc1-n1c(NN)nc2ccc(Br)cc2c1=O`, the TGI in experiment [2] is 53.1 µM; in experiment [4] it was above 100 µM; in [5], above 100 µM; in experiment [6] it was above 100 µM; in experiment [7], above 100 µM; in experiment [8] it was above 100 µM. Further, the TGI in experiment [9], in [10], in experiment [11], in experiment [12], in [13] and in [14] was above 100 µM throughout. Moreover, the figures for the TGI in [15], in [16] and in [17] were 79.5 µM, above 100 µM and 93.1 µM, respectively.
On to `CC(C)N(C(=O)C12C3C4C1C1C2C3C41I)C(C)C` (stereo not given), for which the TGI in experiment [1], in experiment [2], in [3], in experiment [4], in [6] and in experiment [7] was above 100 µM throughout. In addition, the TGI in [8], in experiment [9], in experiment [11], in [12], in experiment [13] and in experiment [14] was above 100 µM throughout. For the same compound, the TGI in experiment [15] and in experiment [17] was above 100 µM throughout.
Take `C[C@@]1(Cc2ccccc2)C(=O)N2[C@@H](CO)C(c3ccccc3)O[C@]2(C)c2ccccc21` (stereo not given in full): the TGI in [1], in [2], in [3], in [4], in experiment [5] and in experiment [7] was above 100 µM in each case. Besides, the TGI in experiment [9], in experiment [10], in [11], in experiment [13], in experiment [14] and in experiment [15] was above 100 µM each time. In addition, the TGI in [16] and in [17] was above 100 µM throughout.
Consider `COc1cc(C2C(C(=O)Nc3ccc([N+](=O)[O-])cc3)=C(C)NC(C)=C2C(=O)Nc2ccc([N+](=O)[O-])cc2)ccc1O`, for which the TGI in experiment [1] was 30.9 µM; in [2], above 100 µM; in [3], 57 µM; in experiment [4] it was 81.6 µM; in experiment [5] it was 31.5 µM; in experiment [6] it was 60 µM. Also, the TGI is above 63.2 µM in experiment [7]; above 62.1 µM in experiment [8]; above 54.2 µM in [9]; 39 µM in experiment [10]; above 72.6 µM in experiment [11]; 36.4 µM in [12]. The TGI in experiment [13] was above 73.9 µM; in experiment [14] it was above 86.3 µM; in experiment [15], 68.7 µM; in experiment [16] it was 33.8 µM; in [17], 46.3 µM.
With `CC12C(=C(C#N)C(=N)N1c1ccc(Cl)c(Cl)c1)C=C(O)CC2SCCS(=O)(=O)O` (stereo not given), the TGI in experiment [1], in experiment [2], in [3], in experiment [4], in [5] and in experiment [7] was above 100 µM each time. Moreover, the TGI is above 100 µM in experiment [9]; 94.7 µM in experiment [10]; above 100 µM in [11]; above 100 µM in [12]; above 100 µM in experiment [13]; above 100 µM in experiment [14]. In addition, the TGI in experiment [15], in [16] and in experiment [17] was above 100 µM in each case.
Take `C[C@@H]1OC2(O)[C@H]3CCCN3S(=O)(=O)CCN2C1=O` (stereo not given in full): the TGI in experiment [1], in [2], in [3], in experiment [4], in [5] and in experiment [6] was above 100 µM throughout. Besides, the TGI in [7], in experiment [8], in experiment [9], in [10], in [11] and in experiment [12] was above 100 µM throughout. Moreover, the TGI in experiment [13], in experiment [14], in experiment [15], in experiment [16] and in experiment [17] was above 100 µM throughout.
For the compound `N#C/C(=C\c1cc(O)ccc1O)C(N)=O`, the TGI is above 100 µM in experiment [1]; 34.6 µM in experiment [2]; above 100 µM in [3]; above 100 µM in experiment [4]; above 100 µM in [6]; 95.4 µM in experiment [7]. Further, the TGI in experiment [8] is above 100 µM; in experiment [9] it was above 100 µM; in [10], 86.6 µM; in experiment [11], above 100 µM; in experiment [12], above 100 µM; in experiment [13], above 100 µM. Besides, the TGI in experiment [14] was 90.8 µM; in [15], above 100 µM; in [16], above 100 µM; in experiment [17], above 100 µM.
On to `COc1ccccc1-n1c(N)c2c(C)c(-c3ccccc3)[nH]c2nc1=S`, for which the TGI in [1], in experiment [2], in experiment [3], in experiment [4], in experiment [5] and in experiment [6] was above 100 µM each time. Further, the TGI in [7], in [8], in experiment [9], in experiment [12], in [13] and in experiment [14] was above 100 µM throughout. Also, the TGI in experiment [15], in [16] and in experiment [17] was above 100 µM throughout.
